# Patent EP2818471A1, “Nitrogen bicyclic compounds as inhibitors for Scyl1 and Grk5” (Max-Planck-Gesellschaft zur Förderung der Wissenschaften …, priority 2013, dated 2014)
# Test system: beta-TC6 cells
# Assay: Insulin HTRF assay, relative activity Ar normalized to sunitinib
# Type: cell-based
# Conditions: Mus musculus, normalized to positive control sunitinib (5 µM = 100%), Table 10
# Description: For further screening of compounds derived from compounds described above for their ability to regulate insulin release an insulin HTRF® (Homogeneous Time-Resolved Fluorescence; Cisbio International, France) was used. This assay is based on two antibodies against insulin binding to different epitopes of insulin. One of these antibodies is coupled to Europium (Ab-Eu-Cryptate) and the other one to the fluorophore XL665 (Ab-XL665). Is insulin secreted into the supernatant of cell culture both antibodies can bind to insulin and come therefore into close proximity which allows upon excitation that energy transfer between (FRET) the long-life fluorescent donor Europium (cryptate) and the acceptors XL665. FRET increases proportionally with insulin concentration.
# The automated assay protocol is as follows: • On day 1 15k beta-TC6 cells per well were seeded for 24 or 48 h in 50 µl complete medium. On day 2 or respective on day 3 the medium is removed and cells are washed with 60 µl 1xPBS and 20 µl induction buffer is added using BioTek washer. Subsequently, 10 µl Sunitininb (5 µM f.c.) or the test compound in induction buffer; 0.5% f.c. DMSO (CyBi-well) is transferred to the cells. The cells are then incubated at 37°C for 2, 3, 4h.
# The HTRF assay is carried out using Greiner 384-well 784075 assay plates. First 10 µl supernatant is transferred from the cell plates in HTRF plates (CyBi-well). 10 µl of 0, 1, 2, and 4 ng/ml Insulin standard controls in assay medium is used as a control. To each well 10 µl of combined 1:25 Ab-XL665 (Acc) and 1:20 Ab-Eu-Cryptate (WellMate) are added and incubated for 120 min at RT in the dark. Finally HTRF is measured on ViewLux ultra high throughput microplate imager (PerkinElmer).
# The evaluation software DataFactoty derives relative activities Ar according to the following equation: Ar = (V-R(0%control))/(R(100%control) -R(0%control)) × 100 [formula] […]
# The activity of the compounds was classified according to their Ar (relative activity) into the following ranges: Ar ≥ 100% + + + +; 50% ≤ Ar < 100% + + +; 20% ≤ Ar < 50% + +; 10% < Ar < 20% + [formula] Table 10. Ar (relative activity) values of inventive compounds
row,SMILES,Emax
1,"CC(C)[C@@H](CO)Nc1ccc2ncc(-c3ccc(N)cc3)n2n1 [compound 5, (2S)-2-[[3-(4-aminophenyl)imidazo[1,2-b]pyridazin-6-yl]amino]-3-methyl-butan-1-ol]",50 to 100%
2,"COc1ccc(-c2cnc3ccc(NCc4cccs4)nn23)c(OC)c1 [compound 6, 3-(2,4-dimethoxyphenyl)-N-(2-thienylmethyl)imidazo[1,2-b]pyridazin-6-amine]",20 to 50%
3,"COCCNc1ccc2ncc(-c3ccc(C(=O)Nc4ccc(OC)cc4)cc3)n2n1 [compound 7, 4-[6-(2-methoxyethylamino)imidazo[1,2-b]pyridazin-3-yl]-N-(4-methoxyphenyl)benzamide]",20 to 50%
4,"CCC(CO)Nc1ccc2ncc(-c3ccccc3Cl)n2n1 (stereo not shown) [compound 9, 2-[[3-(2-chlorophenyl)imidazo[1,2-b]pyridazin-6-yl]amino]butan-1-ol]",10 to 20%
5,"COc1cc(-c2cnc3ccc(NCc4cccc(Cl)c4)nn23)ccc1O [compound 16, 4-[6-[(3-chlorophenyl)methylamino]imidazo[1,2-b]pyridazin-3-yl]-2-methoxy-phenol]",20 to 50%
6,"CC(=O)Nc1cccc(-c2cnc3ccc(NCc4ccc(F)cc4)nn23)c1 [compound 19, N-[3-[6-[(4-fluorophenyl)methylamino]imidazo[1,2-b]pyridazin-3-yl]phenyl]acetamide]",10 to 20%
7,"CCCNc1ccc2ncc(-c3ccc(C(=O)O)cc3)n2n1 [compound 20, 4-[6-(propylamino)imidazo[1,2-b]pyridazin-3-yl]benzoic acid]",10 to 20%
8,"CCCNc1ccc2ncc(-c3cccc(/C=C/C(=O)O)c3)n2n1 [compound 21, (E)-3-[3-[6-(propylamino)imidazo[1,2-b]pyridazin-3-yl]phenyl]prop-2-enoic acid]",10 to 20%
9,"c1cncc(CCNc2ccc3ncc(-c4ccc(N5CCOCC5)cc4)n3n2)c1 [compound 24, 3-(4-morpholinophenyl)-N-[2-(3-pyridyl)ethyl]imidazo[1,2-b]pyridazin-6-amine]",50 to 100%
10,"c1cncc(CCNc2ccc3ncc(-c4ccc5ccccc5c4)n3n2)c1 [compound 25, 3-(2-naphthyl)-N-[2-(3-pyridyl)ethyl]imidazo[1,2-b]pyridazin-6-amine]",10 to 20%
11,"c1cc2c(cc1CNc1ccc3ncc(-c4ccc(N5CCOCC5)cc4)n3n1)OCO2 [compound 26, N-(1,3-benzodioxol-5-ylmethyl)-3-(4-morpholinophenyl)imidazo[1,2-b]pyridazin-6-amine]",20 to 50%
12,"OC1CCC(Nc2ccc3ncc(Br)n3n2)CC1 (stereo not shown) [compound 32, 4-[(3-bromoimidazo[1,2-b]pyridazin-6-yl)amino]cyclohexanol]",10 to 20%
13,"Nc1cccc(-c2cnc3ccc(NC4CCOCC4)nn23)c1 [compound 33, 3-(3-aminophenyl)-N-tetrahydropyran-4-yl-imidazo[1,2-b]pyridazin-6-amine]",20 to 50%
14,"COc1ccc(CNc2ccc3ncc(-c4ccc(O)cc4)n3n2)cc1 [compound 36, 4-[6-[(4-methoxyphenyl)methylamino]imidazo[1,2-b]pyridazin-3-yl]phenol]",20 to 50%
15,"COc1ccc(CNc2ccc3ncc(-c4ccc5[nH]ccc5c4)n3n2)cc1 [compound 37, 3-(1H-indol-5-yl)-N-[(4-methoxyphenyl)methyl]imidazo[1,2-b]pyridazin-6-amine]",20 to 50%
16,"COc1ccc(CNc2ccc3ncc(-c4ccc(OC)cc4OC)n3n2)cc1 [compound 39, 3-(2,4-dimethoxyphenyl)-N-[(4-methoxyphenyl)methyl]imidazo[1,2-b]pyridazin-6-amine]",10 to 20%
17,"COc1ccc(-c2cnc3ccc(NCCCO)nn23)cc1 [compound 41, 3-[[3-(4-methoxyphenyl)imidazo[1,2-b]pyridazin-6-yl]amino]propan-1-ol]",10 to 20%
18,"COc1ccc(-c2cnc3ccc(NCCCO)nn23)c(OC)c1 [compound 42, 3-[[3-(2,4-dimethoxyphenyl)imidazo[1,2-b]pyridazin-6-yl]amino]propan-1-ol]",10 to 20%
19,"Brc1cnc2ccc(NCCCN3CCOCC3)nn12 [compound 44, 3-bromo-N-(3-morpholinopropyl)imidazo[1,2-b]pyridazin-6-amine]",10 to 20%
20,"COc1ccc(-c2cnc3ccc(N[C@H](CO)C(C)C)nn23)c(OC)c1 [compound 46, (2S)-2-[[3-(2,4-dimethoxyphenyl)imidazo[1,2-b]pyridazin-6-yl]amino]-3-methyl-butan-1-ol]",20 to 50%
21,"COc1ccc(-c2cnc3ccc(NCc4ccccn4)nn23)cc1OC [compound 47, 3-(3,4-dimethoxyphenyl)-N-(2-pyridylmethyl)imidazo[1,2-b]pyridazin-6-amine]",20 to 50%
22,"COc1cc(CNc2ccc3ncc(-c4ccc(N(C)C)cc4)n3n2)cc(OC)c1OC [compound 49, 3-(4-dimethylaminophenyl)-N-[(3,4,5-trimethoxyphenyl)methyl]imidazo[1,2-b]pyridazin-6-amine]",10 to 20%

row,SMILES,Emax
1,"COc1ccc(-c2cnc3ccc(NCC4CC4)nn23)cn1 [compound 51, N-(cyclopropylmethyl)-3-(6-methoxy-3-pyridyl)imidazo[1,2-b]pyridazin-6-amine]",10 to 20%
2,"Cc1ccc(CNc2ccc3ncc(-c4ccc(O)cc4)n3n2)c(C)c1 [compound 52, 4-[6-[(2,4-dimethylphenyl)methylamino]imidazo[1,2-b]pyridazin-3-yl]phenol]",20 to 50%
3,"Cc1ccc(CNc2ccc3ncc(-c4ccc(C(=O)NCCN(C)C)cc4)n3n2)c(C)c1 [compound 54, N-(2-dimethylaminoethyl)-4-[6-[(2,4-dimethylphenyl)methylamino]imidazo[1,2-b]pyridazin-3-yl]benzamide]",20 to 50%
4,"CNc1ccc2ncc(/C=C\CCCO)n2n1 [compound 59, (Z)-5-[6-(methylamino)imidazo[1,2-b]pyridazin-3-yl]pent-4-en-1-ol]",10 to 20%
5,"CNc1ccc2ncc(-c3ccccc3O)n2n1 [compound 60, 2-[6-(methylamino)imidazo[1,2-b]pyridazin-3-yl]phenol]",20 to 50%
6,"CNc1ccc2ncc(-c3cccc(C(=O)N(C)C)c3)n2n1 [compound 61, N,N-dimethyl-3-[6-(methylamino)imidazo[1,2-b]pyridazin-3-yl]benzamide]",20 to 50%
7,"CN1CCN(c2ccc(-c3cnc4cccnn34)cn2)CC1 [compound 69, 3-[6-(4-methylpiperazin-1-yl)-3-pyridyl]imidazo[1,2-b]pyridazine]",10 to 20%
8,"CSc1ccc(-c2cnc3cccnn23)cc1 [compound 72, 3-(4-methylsulfanylphenyl)imidazo[1,2-b]pyridazine]",10 to 20%
9,"C(=C\c1cnc2cccnn12)/c1ccccc1 [compound 74, 3-[(E)-styryl]imidazo[1,2-b]pyridazine]",20 to 50%
10,"CCOc1cccc(-c2cnc3cccnn23)c1 [compound 76, 3-(3-ethoxyphenyl)imidazo[1,2-b]pyridazine]",10 to 20%
11,"Cc1cc(-c2cnc3cccnn23)cc(C)c1O [compound 77, 4-imidazo[1,2-b]pyridazin-3-yl-2,6-dimethyl-phenol]",10 to 20%
12,"O=C(NCCO)c1ccc(-c2cnc3cccnn23)cc1 [compound 78, N-(2-hydroxyethyl)-4-imidazo[1,2-b]pyridazin-3-yl-benzamide]",10 to 20%
13,"c1cnn2c(-c3ccc4c(c3)CCO4)cnc2c1 [compound 80, 3-(2,3-dihydrobenzofuran-5-yl)imidazo[1,2-b]pyridazine]",10 to 20%
14,"N#Cc1cccc(-c2cnc3cccnn23)c1 [compound 82, 3-imidazo[1,2-b]pyridazin-3-ylbenzonitrile]",20 to 50%
15,"Cc1cccc(-c2cnc3cccnn23)c1 [compound 84, 3-(m-tolyl)imidazo[1,2-b]pyridazine]",10 to 20%
16,"CCOc1ccc(-c2cnc3cccnn23)cc1 [compound 85, 3-(4-ethoxyphenyl)imidazo[1,2-b]pyridazine]",10 to 20%
17,"CSc1ccccc1-c1cnc2cccnn12 [compound 86, 3-(2-methylsulfanylphenyl)imidazo[1,2-b]pyridazine]",50 to 100%
18,"CC(=O)c1ccc(-c2cnc3cccnn23)cc1 [compound 87, 1-(4-imidazo[1,2-b]pyridazin-3-ylphenyl)ethanone]",10 to 20%
19,"O=C(NC1CC1)c1ccc(-c2cnc3cccnn23)cc1 [compound 89, N-cyclopropyl-4-imidazo[1,2-b]pyridazin-3-yl-benzamide]",10 to 20%
20,"CS(=O)(=O)Nc1ccc(-c2cnc3cccnn23)cc1 [compound 96, N-(4-imidazo[1,2-b]pyridazin-3-ylphenyl)methanesulfonamide]",10 to 20%
21,"NC(=O)c1ccc(-c2ccc3ncc(-c4ccccc4)n3n2)cc1 [compound 100, 4-(3-phenylimidazo[1,2-b]pyridazin-6-yl)benzamide]",20 to 50%
